The supplement of paper PMC10307832

Assays:
Test in all cases: relative viability (nuclei count vs DMSO), 5 days (fraction); higher = more cells survive
AZD1208 + Dasatinib = compound: N[C@@H]1CCCN(c2c(/C=C3\SC(=O)NC3=O)cccc2-c2ccccc2)C1 [AZD1208] + Cc1nc(Nc2ncc(C(=O)Nc3c(C)cccc3Cl)s2)cc(N2CCN(CCO)CC2)n1 [Dasatinib] (partner 0.075 µM)
Summary of the method: (§1)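 Five library-drug doses in √10 steps were combined with a fixed anchor-drug dose, or a single drug was given alone, by pin tool to lung cancer cell lines in 1536-well plates the day after seeding. Nuclei were stained and counted after 5 days. Relative viability is the nuclei count in treated wells over that in vehicle wells, taken as the median of duplicate plates.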

AZD1208 + Vorinostat = compound: N[C@@H]1CCCN(c2c(/C=C3\SC(=O)NC3=O)cccc2-c2ccccc2)C1 [AZD1208] + O=C(CCCCCCC(=O)Nc1ccccc1)NO [Vorinostat] (partner 1 µM)
Summary of the method: as §1

AZD1208 + Decitabine = compound: N[C@@H]1CCCN(c2c(/C=C3\SC(=O)NC3=O)cccc2-c2ccccc2)C1 [AZD1208] + Nc1ncn([C@H]2C[C@H](O)[C@@H](CO)O2)c(=O)n1 [Decitabine] (partner 2 µM)
Summary of the method: as §1

XMD14-99 + Vorinostat = compound: CN1CCN(CC1)C2=CC(=C(C=C2)NC3=NC(=C(S3)C(=O)C4=C(C=CC=C4Cl)Cl)N)OC [XMD14-99] + O=C(CCCCCCC(=O)Nc1ccccc1)NO [Vorinostat] (partner 1 µM)
Summary of the method: as §1

Cell Line	relative viability (AZD1208 + Dasatinib; first compound 0.08 µM)	relative viability (AZD1208 + Dasatinib; first compound 0.253 µM)	relative viability (AZD1208 + Dasatinib; first compound 0.8 µM)	relative viability (AZD1208 + Dasatinib; first compound 2.53 µM)	relative viability (AZD1208 + Dasatinib; first compound 8 µM)	relative viability (AZD1208 + Vorinostat; first compound 0.08 µM)	relative viability (AZD1208 + Vorinostat; first compound 0.253 µM)	relative viability (AZD1208 + Vorinostat; first compound 0.8 µM)	relative viability (AZD1208 + Vorinostat; first compound 2.53 µM)	relative viability (AZD1208 + Vorinostat; first compound 8 µM)	relative viability (AZD1208 + Decitabine; first compound 0.08 µM)	relative viability (AZD1208 + Decitabine; first compound 0.253 µM)	relative viability (AZD1208 + Decitabine; first compound 0.8 µM)	relative viability (AZD1208 + Decitabine; first compound 2.53 µM)	relative viability (AZD1208 + Decitabine; first compound 8 µM)	relative viability (XMD14-99 + Vorinostat; first compound 0.08 µM)	relative viability (XMD14-99 + Vorinostat; first compound 0.8 µM)	relative viability (XMD14-99 + Vorinostat; first compound 2.53 µM)	relative viability (XMD14-99 + Vorinostat; first compound 8 µM)
PC-3 [JPC-3]	1.13	1.11	1.01	1.05	0.957	1.13	0.746	0.857	0.909	0.926	0.81	0.932	0.751	0.887	0.81	1.04	0.843	0.756	0.539
NCI-H1437	0.495	0.297	0.337	0.296	0.337	0.805	0.93	0.933	1	0.857	0.546	0.594	0.638	0.581	0.536	0.797	0.66	0.641	0.382
NCI-H520	0.151	0.196	0.173	0.154	0.178	0.735	0.73	0.711	0.768	0.449	0.566	0.507	0.473	0.456	0.428	0.686	0.635	0.658	0.454
NCI-H1666	0.843	0.829	0.828	0.763	0.834	1.06	1.02	0.887	0.966	0.908	0.735	0.713	0.635	0.743	0.629	1.04	0.967	0.947	0.895
NCI-H1651	0.406	0.461	0.38	0.319	0.307	0.583	0.602		0.561	0.556	0.665	0.642		0.613	0.554	0.614	0.487	0.534	0.448
NCI-H1755	0.422	0.407	0.345	0.339	0.209	0.79	0.893	0.604	0.685	0.555	0.695	0.675	0.723	0.713	0.625	0.661	0.742	0.686	0.608
NCI-H727	0.315	0.322	0.315	0.313	0.314	0.925	1.14	1.11	1.11	1.03	0.906	0.689	0.589	0.867	0.854	1.25	0.989	1.06	0.994
HARA	0.284	0.273	0.236	0.261	0.284	0.489	0.486	0.451	0.515	0.546	0.767	0.578	0.486	0.536	0.545	0.537	0.499	0.369	0.397
NCI-H647	0.119	0.226	0.106	0.132	0.169	0.521	0.701	0.643	0.428	0.256	0.256	0.56	0.33	0.372	0.297	0.522	0.581	0.648	0.582
NCI-H2347	0.306	0.339	0.339	0.321	0.257	0.531	0.767	0.533	0.599	0.803	0.599	0.631	0.564	0.671	0.645	0.533	0.598	0.455	0.358
LCLC-97TM1	0.88	0.827	0.82	0.631	0.891	0.64	0.99	0.623	0.442	0.54	0.175	0.209	0.238	0.233	0.178	0.732	0.661	0.604	0.315
EPLC-272H	0.3	0.363	0.286	0.305	0.252	0.405	0.505	0.38	0.333	0.443	0.412	0.342	0.392	0.364	0.368	0.476	0.399	0.401	0.419
NCI-H522	0.828	0.774	0.911	0.78	0.717	0.691	0.75	0.768	0.828	0.836	0.678	0.634	0.73	0.643	0.636	0.809	0.889	0.757	0.956
NCI-H1915	0.305	0.298	0.296	0.294	0.239	0.545	0.512	0.525	0.464	0.434	0.249	0.263	0.235	0.271	0.231	0.519	0.491	0.486	0.377
NCI-H3122	0.833	0.75	0.642	0.618	0.0921	0.97	0.943	0.924	1.05	0.524	0.457	0.362	0.351	0.431	0.315	0.962	0.991	0.923	0.707
NCI-H441	0.593	0.486	0.425	0.55	0.437	0.742	0.757	0.62	0.616	0.711	0.205	0.298	0.291	0.224	0.264	0.823	0.75	0.745	0.681
NCI-H2170	0.615	0.542	0.478	0.485	0.406	0.864	0.923	0.76	0.779	0.5	0.439	0.498	0.417	0.481	0.369	0.784	0.832	0.741	0.609
